Assay results published in patent US20180228804A1, “COMBINATION THERAPY OF HBV AND HDV INFECTION” (MYR GMBH, priority 2014, published 2018).

What was measured:
[1] = test system: HepaRG cells infected with HBV/HDV containing serum; experiment: Number of HBcAg-positive HepaRG cells on day 6 post infection by HBcAg-specific IF, Myrcludex B with or without entecavir; format: cell-based; conditions: immunochemistry
HBV = conditions: after two years of treatment; cited from earlier work

Compound: C=C1[C@H](CO)[C@@H](O)C[C@@H]1n1cnc2c(=O)[nH]c(N)nc21 [entecavir]
- effect of entecavir on the inhibition of HBV receptor by Myrcludex B in vitro [1]: did not improve

Compound: C[C@H](Cn1cnc2c(N)ncnc21)OCP(=O)(O)O [tenofovir]
- HBsAg seroconversion (HBV): 4 % of patients
